Source: patent publication US12351574B2, “Selective ligands for modulation of GIRK channels” (Northeastern University, priority 2018, dated 2025)

Key:
GIRK1/4 = target: T1, GIRK1/4 (Homo sapiens, UniProt P48544+P48549); assay: diC8-PIP2 concentration-response (NPo), inside-out macropatches from Xenopus oocytes, GIRK1/4; assay type: cell-based; design: expressed in transfected cells; host or cells: Xenopus laevis oocytes (cRNA injection); details: in the presence of 10 μM compound; for apparent affinity of GIRK1/4 channels for diC8-PIP2: control 48.4±8 μM
T1 sequence (P48549 1-501): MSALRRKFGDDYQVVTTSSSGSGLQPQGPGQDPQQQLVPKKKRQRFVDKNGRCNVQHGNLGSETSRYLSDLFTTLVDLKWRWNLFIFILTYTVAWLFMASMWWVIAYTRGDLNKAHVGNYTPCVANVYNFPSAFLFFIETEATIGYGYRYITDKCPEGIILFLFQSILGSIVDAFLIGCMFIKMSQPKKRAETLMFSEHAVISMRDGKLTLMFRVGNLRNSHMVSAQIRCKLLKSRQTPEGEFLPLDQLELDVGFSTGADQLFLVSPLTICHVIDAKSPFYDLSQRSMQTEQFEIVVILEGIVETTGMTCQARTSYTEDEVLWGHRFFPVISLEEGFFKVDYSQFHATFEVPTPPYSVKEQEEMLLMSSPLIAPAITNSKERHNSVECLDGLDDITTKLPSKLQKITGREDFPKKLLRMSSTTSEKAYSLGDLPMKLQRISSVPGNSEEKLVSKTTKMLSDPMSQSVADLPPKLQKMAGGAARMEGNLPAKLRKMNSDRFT
T1 sequence (P48544 1-419): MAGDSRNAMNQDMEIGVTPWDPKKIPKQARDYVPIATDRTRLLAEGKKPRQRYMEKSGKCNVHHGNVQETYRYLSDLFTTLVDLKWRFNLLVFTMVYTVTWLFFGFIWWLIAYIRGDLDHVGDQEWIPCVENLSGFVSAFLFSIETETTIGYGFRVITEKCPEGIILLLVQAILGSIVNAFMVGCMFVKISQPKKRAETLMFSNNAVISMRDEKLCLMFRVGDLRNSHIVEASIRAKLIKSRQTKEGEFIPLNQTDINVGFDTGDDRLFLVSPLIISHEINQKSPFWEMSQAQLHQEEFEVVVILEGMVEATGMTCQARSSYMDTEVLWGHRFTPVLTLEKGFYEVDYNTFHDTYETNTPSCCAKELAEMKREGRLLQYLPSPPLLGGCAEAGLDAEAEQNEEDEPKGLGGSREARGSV
Description: (§1) The inventors next turned to inside-out macropatches from Xenopus oocytes to compare changes in the PIP2 sensitivity by examining diC8 concentration-responses in the absence and presence of saturating concentrations of each of the activating compounds. […] In FIG. 14B, the control plot overlays the GAT1508 and GAT1521 plots; only ML297 was able to left-shift the sensitivity of GIRK1/4 heteromers to PIP2, while both GAT1508 and GAT1521 were ineffective in changing the sensitivity of these heteromers to PIP2.
(§2) Xenopus laevis oocyte expression: Plasmid DNAs of GIRK channel subunits were linearized prior to in vitro transcription. Capped RNAs were transcribed using mMESSAGE mMACHINE T7 Transcription Kit (Thermo Fisher Scientific). Xenopus oocytes were surgically extracted, dissociated and defolliculated by collagenase treatment, and microinjected with 50 nl of a water solution containing 1 ng of each GIRK subunit RNA. For TEVC experiments, oocytes were kept 2 days at 17° C. before recording, while for NPo experiments oocytes were incubated for up to 4 days at 17° C.
(§3) Oocyte macropatch studies: Macropatch GIRK channel activity was recorded from devitellinized oocytes under the inside-out mode of standard patch clamp methods using an AM2400 patch clamp amplifier (A-M systems). […] Oocytes were bathed with a solution comprising (in mM): 96 KCl, 5 EGTA, 1 MgATP and 10 HEPES (pH 7.4). Current amplitudes were measured at −80 mV with a sampling rate of 10 kHz. Data were analyzed using WinEDR and Clampfit software (Molecular Devices).

GIRK1/2 = target: T2, GIRK1/2 (UniProt P48542+P48549); assay: diC8-PIP2 concentration-response (NPo), inside-out macropatches from Xenopus oocytes, GIRK1/2; assay type: cell-based, human GIRK1, mouse GIRK2; design: expressed in transfected cells; host or cells: Xenopus laevis oocytes (cRNA injection); details: in the presence of 10 μM compound; for EMAX of diC8-PIP2 response (NPo), GIRK1/2: control 5.7±0.3; for apparent affinity of GIRK1/2 channels to diC8-PIP2: control 36±7 μM
T2 sequence (P48549 1-501): T1 sequence (P48549 1-501)
T2 sequence (P48542 1-425): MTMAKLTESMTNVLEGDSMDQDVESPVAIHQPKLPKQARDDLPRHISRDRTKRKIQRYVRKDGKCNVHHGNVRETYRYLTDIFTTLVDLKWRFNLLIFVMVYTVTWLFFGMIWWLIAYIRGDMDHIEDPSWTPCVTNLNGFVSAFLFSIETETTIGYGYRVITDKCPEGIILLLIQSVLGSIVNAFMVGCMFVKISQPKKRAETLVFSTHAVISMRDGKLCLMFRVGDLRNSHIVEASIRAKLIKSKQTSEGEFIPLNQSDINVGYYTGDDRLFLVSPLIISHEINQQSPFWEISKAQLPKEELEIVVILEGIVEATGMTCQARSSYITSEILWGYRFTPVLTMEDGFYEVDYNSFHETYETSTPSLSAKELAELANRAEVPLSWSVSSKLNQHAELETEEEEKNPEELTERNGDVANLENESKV
Description: as §1, §2, §3

apparent affinity of GIRK1/4 channels for diC8-PIP2 (GIRK1/4) [µM]	EMAX of diC8-PIP2 response (NPo), GIRK1/2 (GIRK1/2)	apparent affinity of GIRK1/2 channels to diC8-PIP2 (GIRK1/2) [µM]	EMAX of diC8-PIP2 response (NPo), GIRK1/4 (GIRK1/4; control 4.4±0.2)	SMILES
46 ± 7.4	10.5±0.3	5.5 ± 7		Cc1cc(NC(=O)Nc2ccc(Br)s2)n(-c2ccccc2)n1 [GAT1508, 1-(5-bromothiophen-2-yl)-3-(3-methyl-1-phenyl-1H-pyrazol-5-yl)urea]
51 ± 6.5	9.1±0.2	11 ± 2		Cc1cc(NC(=O)Nc2ccc(C)s2)n(-c2ccccc2)n1 [GAT1521, 1-(3-methyl-1-phenyl-1H-pyrazol-5-yl)-3-(5-methylthiophen-2-yl)urea]
17.4 ± 2	7.5±0.4	23 ± 5	5.4±0.2	Cc1cc(NC(=O)Nc2ccc(F)c(F)c2)n(-c2ccccc2)n1 [ML297, reference compound]
